Measured values as given in ChEMBL document CHEMBL1759965, “Synthesis and pharmacological evaluation of bivalent antagonists of the nociceptin opioid receptor” (Eur J Med Chem, 2011).
Calls of active or inactive are those of the source. The calls are words filed in the database; no cut-off is given here.

Assays:
Homo sapiens [1] = species: Homo sapiens; assay: Selectivity ratio of IC50 for human kappa opioid receptor to IC50 for human NOP receptor
Nociceptin receptor [2] = target: T1, Nociceptin receptor (Homo sapiens, UniProt P41146); assay: Displacement of [125I]Tyr14-nociceptin from human NOP receptor expressed in human HEK293 cells after 90 mins by scintillation counting
Nociceptin receptor [3] = target: T1, Nociceptin receptor; assay: Antagonist activity at human NOP receptor expressed in human HEK293 cells assessed as inhibition of GTPgammaS binding in presence of 300 nM GDP relative to control; assay type: functional, cell-based
Mu-type opioid receptor = Mu-type opioid receptor (Homo sapiens, UniProt P35372); assay: Displacement of [3H]-naltrindole from human mu opioid receptor expressed in CHO cells after 2 hrs by scintillation counting; assay type: cell-based
[4] = target: Delta-type opioid receptor (Homo sapiens) (UniProt P41143); assay: Displacement of [3H]-naltrindole from human delta opioid receptor expressed in human HEK293 cells after 2 hrs by scintillation counting; assay type: cell-based
Homo sapiens [5] = species: Homo sapiens; assay: Selectivity ratio of IC50 for human mu opioid receptor to IC50 for human NOP receptor
[6] = target: Kappa-type opioid receptor (Homo sapiens, UniProt P41145); assay: Displacement of [3H]-diprenorphine from human kappa opioid receptor expressed in human HEK293 cells after 2 hrs by scintillation counting
Kappa-type opioid receptor, sequence (P41145 whole entry): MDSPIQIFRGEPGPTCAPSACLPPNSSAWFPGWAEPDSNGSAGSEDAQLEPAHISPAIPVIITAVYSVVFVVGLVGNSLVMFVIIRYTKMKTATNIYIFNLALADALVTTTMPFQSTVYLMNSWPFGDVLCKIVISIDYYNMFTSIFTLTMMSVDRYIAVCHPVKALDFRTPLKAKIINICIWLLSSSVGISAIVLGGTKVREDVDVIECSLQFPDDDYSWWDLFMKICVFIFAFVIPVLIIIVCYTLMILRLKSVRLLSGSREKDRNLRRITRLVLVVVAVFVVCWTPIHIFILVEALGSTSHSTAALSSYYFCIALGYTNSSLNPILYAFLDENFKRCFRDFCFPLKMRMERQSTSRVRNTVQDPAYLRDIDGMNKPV

Delta-type opioid receptor (Homo sapiens), sequence (P41143 whole entry): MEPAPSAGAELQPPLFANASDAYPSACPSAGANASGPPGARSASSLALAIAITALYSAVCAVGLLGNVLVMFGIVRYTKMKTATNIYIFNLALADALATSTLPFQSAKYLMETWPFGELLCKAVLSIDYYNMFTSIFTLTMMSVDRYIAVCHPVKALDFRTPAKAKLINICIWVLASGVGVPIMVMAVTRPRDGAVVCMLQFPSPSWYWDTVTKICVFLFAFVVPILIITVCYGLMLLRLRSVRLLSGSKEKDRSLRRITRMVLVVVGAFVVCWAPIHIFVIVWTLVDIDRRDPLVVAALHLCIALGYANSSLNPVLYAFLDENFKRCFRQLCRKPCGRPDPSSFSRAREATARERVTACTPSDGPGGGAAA
Mu-type opioid receptor, sequence (P35372 whole entry): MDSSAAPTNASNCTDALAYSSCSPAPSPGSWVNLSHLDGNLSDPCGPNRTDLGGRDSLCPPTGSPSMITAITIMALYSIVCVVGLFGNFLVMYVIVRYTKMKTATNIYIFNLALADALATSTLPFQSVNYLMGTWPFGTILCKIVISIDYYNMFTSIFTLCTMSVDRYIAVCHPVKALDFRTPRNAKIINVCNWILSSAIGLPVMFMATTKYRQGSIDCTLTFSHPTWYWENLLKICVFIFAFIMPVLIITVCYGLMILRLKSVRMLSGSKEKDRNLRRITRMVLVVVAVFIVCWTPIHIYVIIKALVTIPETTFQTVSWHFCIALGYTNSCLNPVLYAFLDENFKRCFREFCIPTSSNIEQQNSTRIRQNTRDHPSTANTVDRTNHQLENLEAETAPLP
T1 sequence (P41146 whole entry): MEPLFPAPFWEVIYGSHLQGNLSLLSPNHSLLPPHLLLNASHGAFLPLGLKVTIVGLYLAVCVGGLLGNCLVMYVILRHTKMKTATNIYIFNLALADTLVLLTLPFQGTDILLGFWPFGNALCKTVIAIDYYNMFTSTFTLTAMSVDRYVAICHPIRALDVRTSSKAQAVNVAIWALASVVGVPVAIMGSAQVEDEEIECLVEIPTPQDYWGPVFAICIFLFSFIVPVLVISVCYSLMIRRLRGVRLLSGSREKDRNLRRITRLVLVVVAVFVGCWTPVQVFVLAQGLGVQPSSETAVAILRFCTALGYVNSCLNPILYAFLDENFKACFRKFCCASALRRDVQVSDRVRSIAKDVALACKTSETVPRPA

**Q.** With `Cc1cc(N)c2cc(NC(=O)c3ccccc3COc3ccc(CNCCCNCc4ccc(OCc5ccccc5C(=O)Nc5ccc6nc(C)cc(N)c6c5)cc4)cc3)ccc2n1` as the molecule, how does the Ratio IC50 (Homo sapiens [1]) read?
**A.** 177

**Q.** What about the IC50 (Nociceptin receptor [2]) of the same molecule?
**A.** 0.0765 µM

**Q.** What about the Activity (Nociceptin receptor [3]) of the same molecule?
**A.** Active

**Q.** What about the IC50 (Mu-type opioid receptor) of the same molecule?
**A.** 0.468 µM

**Q.** And the Activity [4]?
**A.** inactive

**Q.** What about the Ratio IC50 (Homo sapiens [5]) of the same molecule?
**A.** 15

**Q.** And the IC50 [6]?
**A.** 5.48 µM

**Q.** Which results are given for `CCc1ccc(OCc2ccccc2C(=O)Nc2ccc3nc(C)cc(N)c3c2)cc1`?
**A.** Ratio IC50 (Homo sapiens [1]): 250; IC50 (Nociceptin receptor [2]): 0.03 µM; Activity (Nociceptin receptor [3]): Active; IC50 (Mu-type opioid receptor): 1.51 µM; Activity [4]: inactive; Ratio IC50 (Homo sapiens [5]): 50; IC50 [6]: 7.51 µM

**Q.** Which results are given for `Cc1cc(N)c2cc(NC(=O)c3ccccc3COc3ccc(/C=N/CCC/N=C/c4ccc(OCc5ccccc5C(=O)Nc5ccc6nc(C)cc(N)c6c5)cc4)cc3)ccc2n1`?
**A.** IC50 (Nociceptin receptor [2]): 0.048 µM; Activity (Nociceptin receptor [3]): Active; Activity [4]: inactive

**Q.** How did the IC50 (Nociceptin receptor [2]) turn out when `CCCCCCCCCC/N=C/c1ccc(OCc2ccccc2C(=O)Nc2ccc3nc(C)cc(N)c3c2)cc1` was run?
**A.** 0.184 µM

**Q.** What about the Activity (Nociceptin receptor [3]) of the same molecule?
**A.** Active

**Q.** And the Activity [4]?
**A.** inactive

**Q.** With `Cc1cc(N)c2cc(NC(=O)c3ccccc3COc3ccc(CNCCCCNCc4ccc(OCc5ccccc5C(=O)Nc5ccc6nc(C)cc(N)c6c5)cc4)cc3)ccc2n1` as the molecule, how does the Ratio IC50 (Homo sapiens [1]) read?
**A.** 27

**Q.** What about the IC50 (Nociceptin receptor [2]) of the same molecule?
**A.** 0.0566 µM

**Q.** What about the Activity (Nociceptin receptor [3]) of the same molecule?
**A.** Active

**Q.** What about the IC50 (Mu-type opioid receptor) of the same molecule?
**A.** 1.59 µM

**Q.** What about the Activity [4] of the same molecule?
**A.** inactive

**Q.** And the Ratio IC50 (Homo sapiens [5])?
**A.** 39

**Q.** And the IC50 [6]?
**A.** 1.09 µM

**Q.** Which results are given for `CCCC/N=C/c1ccc(OCc2ccccc2C(=O)Nc2ccc3nc(C)cc(N)c3c2)cc1`?
**A.** IC50 (Nociceptin receptor [2]): 0.309 µM; Activity (Nociceptin receptor [3]): Active; Activity [4]: inactive

**Q.** What does the source list for `Cc1cc(N)c2cc(NC(=O)c3ccccc3COc3ccc(CNCCCCCCCN)cc3)ccc2n1`?
**A.** Ratio IC50 (Homo sapiens [1]): 5.7; IC50 (Nociceptin receptor [2]): 0.246 µM; Activity (Nociceptin receptor [3]): Active; IC50 (Mu-type opioid receptor): 9.98 µM; Activity [4]: inactive; Ratio IC50 (Homo sapiens [5]): 57; IC50 [6]: 0.998 µM

**Q.** For `Cc1cc(N)c2cc(NC(=O)c3ccccc3COc3ccc(CNCCCCCCNCc4ccc(OCc5ccccc5C(=O)Nc5ccc6nc(C)cc(N)c6c5)cc4)cc3)ccc2n1`, which Ratio IC50 (Homo sapiens [1]) is on record?
**A.** 30

**Q.** And the IC50 (Nociceptin receptor [2])?
**A.** 0.0717 µM

**Q.** And the Activity (Nociceptin receptor [3])?
**A.** Active

**Q.** And the IC50 (Mu-type opioid receptor)?
**A.** 1.39 µM

**Q.** What about the Activity [4] of the same molecule?
**A.** inactive

**Q.** And the Ratio IC50 (Homo sapiens [5])?
**A.** 31

**Q.** And the IC50 [6]?
**A.** 1.35 µM

**Q.** Which results are given for `Cc1cc(N)c2cc(NC(=O)c3ccccc3COc3ccc(CNCCCCCCCCN)cc3)ccc2n1`?
**A.** Ratio IC50 (Homo sapiens [1]): 8.6; IC50 (Nociceptin receptor [2]): 0.144 µM; Activity (Nociceptin receptor [3]): Active; IC50 (Mu-type opioid receptor): 0.325 µM; Activity [4]: inactive; Ratio IC50 (Homo sapiens [5]): 3.2; IC50 [6]: 0.872 µM

**Q.** What does the source list for `CCC/N=C/c1ccc(OCc2ccccc2C(=O)Nc2ccc3nc(C)cc(N)c3c2)cc1`?
**A.** IC50 (Nociceptin receptor [2]): 0.0989 µM; Activity (Nociceptin receptor [3]): Active; Activity [4]: inactive

**Q.** `Cc1cc(N)c2cc(NC(=O)c3ccccc3COc3ccc(/C=N/CCCCCCCCCC/N=C/c4ccc(OCc5ccccc5C(=O)Nc5ccc6nc(C)cc(N)c6c5)cc4)cc3)ccc2n1` was tested. Which IC50 (Nociceptin receptor [2]) did it give?
**A.** 0.0821 µM

**Q.** And the Activity (Nociceptin receptor [3])?
**A.** Active

**Q.** What about the Activity [4] of the same molecule?
**A.** inactive

**Q.** How did the IC50 (Nociceptin receptor [2]) turn out when `Cc1cc(N)c2cc(NC(=O)c3ccccc3COc3ccc(/C=N/CCCCCCCC/N=C/c4ccc(OCc5ccccc5C(=O)Nc5ccc6nc(C)cc(N)c6c5)cc4)cc3)ccc2n1` was run?
**A.** 0.114 µM

**Q.** What about the Activity (Nociceptin receptor [3]) of the same molecule?
**A.** Active

**Q.** What about the Activity [4] of the same molecule?
**A.** inactive

**Q.** With `Cc1cc(N)c2cc(NC(=O)c3ccccc3COc3ccc(/C=N/CCCCCC/N=C/c4ccc(OCc5ccccc5C(=O)Nc5ccc6nc(C)cc(N)c6c5)cc4)cc3)ccc2n1` as the molecule, how does the IC50 (Nociceptin receptor [2]) read?
**A.** 0.0833 µM

**Q.** And the Activity (Nociceptin receptor [3])?
**A.** Active

**Q.** And the Activity [4]?
**A.** inactive

**Q.** Which results are given for `CCCCCC/N=C/c1ccc(OCc2ccccc2C(=O)Nc2ccc3nc(C)cc(N)c3c2)cc1`?
**A.** IC50 (Nociceptin receptor [2]): 0.209 µM; Activity (Nociceptin receptor [3]): Active; Activity [4]: inactive

**Q.** `CCCCCCC/N=C/c1ccc(OCc2ccccc2C(=O)Nc2ccc3nc(C)cc(N)c3c2)cc1` was tested. Which IC50 (Nociceptin receptor [2]) did it give?
**A.** 0.142 µM

**Q.** What about the Activity (Nociceptin receptor [3]) of the same molecule?
**A.** Active

**Q.** And the Activity [4]?
**A.** inactive

**Q.** What does the source list for `Cc1cc(N)c2cc(NC(=O)c3ccccc3COc3ccc(CN)cc3)ccc2n1`?
**A.** IC50 (Nociceptin receptor [2]): 0.116 µM; Activity (Nociceptin receptor [3]): Active; Activity [4]: inactive

**Q.** Which results are given for `CCCCCCCCC/N=C/c1ccc(OCc2ccccc2C(=O)Nc2ccc3nc(C)cc(N)c3c2)cc1`?
**A.** IC50 (Nociceptin receptor [2]): 0.154 µM; Activity (Nociceptin receptor [3]): Active; Activity [4]: inactive

**Q.** How did the IC50 (Nociceptin receptor [2]) turn out when `Cc1cc(N)c2cc(NC(=O)c3ccccc3COc3ccc(/C=N/CCCCCCCCC/N=C/c4ccc(OCc5ccccc5C(=O)Nc5ccc6nc(C)cc(N)c6c5)cc4)cc3)ccc2n1` was run?
**A.** 0.0827 µM

**Q.** What about the Activity (Nociceptin receptor [3]) of the same molecule?
**A.** Active

**Q.** What about the Activity [4] of the same molecule?
**A.** inactive

**Q.** `CCCCC/N=C/c1ccc(OCc2ccccc2C(=O)Nc2ccc3nc(C)cc(N)c3c2)cc1` was tested. Which IC50 (Nociceptin receptor [2]) did it give?
**A.** 0.186 µM

**Q.** What about the Activity (Nociceptin receptor [3]) of the same molecule?
**A.** Active

**Q.** And the Activity [4]?
**A.** inactive
